How the values were obtained:
Assay type in all cases: functional
A549 = experiment: Cytotoxicity against human A549 cells assessed as reduction in cell growth incubated for 48 hrs by CCK8 method
NCI-H460 = experiment: Cytotoxicity against human NCI-H460 cells assessed as reduction in cell growth incubated for 48 hrs by CCK8 method
H9c2 = experiment: Antioxidant activity against H2O2 treated rat H9c2 cells assessed as inhibition of MDA level at 10 uM incubated for 4 hrs followed by H2O2 administration by colorimetric assay relative to control; set-up: scale not given: the % may be the effect or the level left
RAW264.7 = experiment: Antiinflammatory activity in mouse RAW264.7 cells assessed as inhibition of LPS induced NO production at 10 uM preincubated for 24 hrs followed by LPS stimulation and measured after 24 hrs by Griess assay relative to control; set-up: scale not given: the % may be the effect or the level left; settings: time 48 hrs

Question: Which results are given for `CC1=C2C[C@H]3[C@@H](CC(=O)[C@H]4C[C@H](O)CC[C@@]43C)[C@@H]2CC[C@]12O[C@@H]1C[C@H](C)CN[C@H]1[C@H]2C`?
Answer: CC50 (A549): 15 µM; CC50 (NCI-H460): 29 µM; Activity (H9c2): 53%; Activity (RAW264.7): 73%

Question: What does the source list for `C[C@H]1CC[C@H]2[C@H](C)[C@H]3CC[C@@H]4[C@@H](C[C@H]5[C@H]4C[C@@H](O)[C@H]4C[C@@H](O)CC[C@@]45C)[C@@H]3CN2C1`?
Answer: CC50 (A549): 19 µM; CC50 (NCI-H460): 10 µM; Activity (H9c2): 38%; Activity (RAW264.7): 8.3%

Question: With `CC1=C2C[C@H]3[C@@H](CC(=O)[C@H]4C[C@@H](O)CC[C@@]43C)[C@@H]2CC[C@]12O[C@@H]1C[C@H](C)CN[C@H]1[C@H]2C` as the compound, how does the CC50 (A549) read?
Answer: Its CC50 is 9.6 µM.

Question: What about the CC50 (NCI-H460) of the same compound?
Answer: Its CC50 is 17 µM.

Question: What about the Activity (H9c2) of the same compound?
Answer: Its Activity is 72%.

Question: And the Activity (RAW264.7)?
Answer: The Activity was 66%.

Question: With `C[C@H]1CC[C@@H]2[C@H](C)[C@@H]3CC[C@@H]4[C@@H](C[C@H]5[C@H]4C[C@@H](O)[C@H]4C[C@@H](O)CC[C@@]45C)[C@@H]3CN2C1` as the compound, how does the CC50 (A549) read?
Answer: Its CC50 is 10 µM.

Question: What about the CC50 (NCI-H460) of the same compound?
Answer: Its CC50 is 12 µM.

Question: What about the Activity (H9c2) of the same compound?
Answer: Its Activity is 33%.

Question: And the Activity (RAW264.7)?
Answer: Its Activity is 27%.

Question: For `C[C@@H]1CC[C@H]2[C@H](C)[C@H]3CC[C@@H]4[C@@H](C[C@H]5[C@H]4CC(=O)[C@H]4C[C@@H](O)CC[C@@]45C)[C@H]3C[N+]2([O-])C1` (stereo not given in full), which CC50 (A549) is on record?
Answer: Its CC50 is 9.5 µM.

Question: What about the CC50 (NCI-H460) of the same compound?
Answer: Its CC50 is 11 µM.

Question: What about the Activity (H9c2) of the same compound?
Answer: The Activity was 39%.

Question: What about the Activity (RAW264.7) of the same compound?
Answer: The Activity was 1.4%.

Question: For `C[C@H]1CC[C@H]2[C@H](C)[C@@H]3CC[C@@H]4[C@@H](C[C@H]5[C@H]4CC(=O)[C@H]4C[C@@H](O)CC[C@@]45C)[C@@H]3CN2C1`, which CC50 (A549) is on record?
Answer: Its CC50 is 30 µM.

Question: And the CC50 (NCI-H460)?
Answer: Its CC50 is 46 µM.

Question: And the Activity (H9c2)?
Answer: The Activity was 39%.

Question: What about the Activity (RAW264.7) of the same compound?
Answer: Its Activity is 23%.

Question: `C[C@H]1CC[C@@H]2[C@H](C)[C@@H]3CC[C@@H]4[C@@H](C[C@H]5[C@H]4CC(=O)[C@H]4C[C@@H](O)CC[C@@]45C)[C@@H]3CN2C1` was tested. Which CC50 (A549) did it give?
Answer: The CC50 was 6.8 µM.

Question: And the CC50 (NCI-H460)?
Answer: Its CC50 is 25 µM.

Question: And the Activity (H9c2)?
Answer: The Activity was 5.4%.

Question: And the Activity (RAW264.7)?
Answer: Its Activity is 62%.

Question: `C[C@@H]1CC[C@H]2[C@H](C)c3ccc4c(c3CN2C1)C[C@H]1[C@H]4C[C@H](O)[C@H]2C[C@@H](O)CC[C@@]21C` was tested. Which CC50 (A549) did it give?
Answer: The CC50 was 52 µM.

Question: And the CC50 (NCI-H460)?
Answer: The CC50 was 65 µM.

Question: What about the Activity (H9c2) of the same compound?
Answer: The Activity was 58%.

Question: What about the Activity (RAW264.7) of the same compound?
Answer: Its Activity is 45%.

Question: Which CC50 (A549) does the source give for `C[C@@H]1CC[C@H]2[C@H](C)[C@H]3CC[C@@H]4[C@@H](C[C@H]5[C@H]4CC(=O)[C@H]4C[C@@H](O[C@@H]6O[C@H](CO)[C@@H](O)[C@H](O)[C@H]6O)CC[C@@]45C)[C@H]3CN2C1` here?
Answer: The CC50 was 19 µM.

Question: What about the CC50 (NCI-H460) of the same compound?
Answer: The CC50 was 59 µM.

Question: And the Activity (H9c2)?
Answer: Its Activity is 53%.

Question: What about the Activity (RAW264.7) of the same compound?
Answer: Its Activity is 7.8%.

Question: Which results are given for `C[C@H]1CC[C@H]2[C@H](C)[C@H]3CC[C@@H]4[C@@H](C[C@H]5[C@H]4C[C@H](O)[C@H]4C[C@@H](O)CC[C@@]45C)[C@@H]3CN2C1`?
Answer: CC50 (A549): 11 µM; CC50 (NCI-H460): 20 µM; Activity (H9c2): 29%; Activity (RAW264.7): 57%

Question: How did the CC50 (A549) turn out when `C[C@H]1CC[C@H]2[C@H](C)[C@H]3CC[C@@H]4[C@@H](C[C@H]5[C@H]4CC(=O)[C@H]4C[C@@H](O)CC[C@@]45C)[C@@H]3CN2C1` was run?
Answer: The CC50 was 22 µM.

Question: And the CC50 (NCI-H460)?
Answer: The CC50 was 37 µM.

Question: What about the Activity (H9c2) of the same compound?
Answer: The Activity was 34%.

Question: And the Activity (RAW264.7)?
Answer: Its Activity is 42%.

Question: What does the source list for `C[C@H]1CC[C@H]2[C@H](C)c3ccc4c(c3CN2C1)C[C@H]1[C@H]4C[C@H](O)[C@H]2C[C@@H](O)CC[C@@]21C`?
Answer: CC50 (A549): 34 µM; CC50 (NCI-H460): 65 µM; Activity (H9c2): 43%; Activity (RAW264.7): 2.1%

Question: With `C[C@@H]1CC[C@H]2[C@@H](C)[C@H]3CC[C@@H]4[C@@H](C[C@H]5[C@H]4CC(=O)[C@H]4C[C@@H](O[C@@H]6O[C@H](CO)[C@@H](O)[C@H](O)[C@H]6O)CC[C@@]45C)[C@@H]3CN2C1` as the compound, how does the CC50 (A549) read?
Answer: The CC50 was 39 µM.

Question: And the CC50 (NCI-H460)?
Answer: The CC50 was 54 µM.

Question: What about the Activity (H9c2) of the same compound?
Answer: Its Activity is 24%.

Question: And the Activity (RAW264.7)?
Answer: Its Activity is 6.1%.

Question: For `C[C@@H]1CC[C@H]2[C@H](C)[C@H]3CC[C@@H]4[C@@H](C[C@H]5[C@H]4CC(=O)[C@H]4C[C@@H](O)CC[C@@]45C)[C@@H]3CN2C1`, which CC50 (A549) is on record?
Answer: Its CC50 is 29 µM.

Question: And the CC50 (NCI-H460)?
Answer: Its CC50 is 49 µM.

Question: What about the Activity (H9c2) of the same compound?
Answer: Its Activity is 20%.

Question: What about the Activity (RAW264.7) of the same compound?
Answer: Its Activity is -1.3%.

Question: With `C[C@@H]1CC[C@H]2[C@H](C)[C@H]3CC[C@@H]4[C@@H](C[C@H]5[C@H]4CC(=O)[C@H]4C[C@@H](O)CC[C@@]45C)[C@H]3CN2C1` as the compound, how does the CC50 (A549) read?
Answer: The CC50 was 43 µM.

Question: And the CC50 (NCI-H460)?
Answer: The CC50 was 54 µM.

Question: What about the Activity (H9c2) of the same compound?
Answer: The Activity was 24%.

Question: And the Activity (RAW264.7)?
Answer: The Activity was 44%.

Question: For `C[C@@H]1CC[C@H]2[C@H](C)[C@H]3CC[C@@H]4[C@@H](C[C@H]5[C@H]4C[C@H](O)[C@H]4C[C@@H](O)CC[C@@]45C)[C@@H]3C[N+]2([O-])C1` (stereo not given in full), which CC50 (A549) is on record?
Answer: Its CC50 is 35 µM.

Question: And the CC50 (NCI-H460)?
Answer: Its CC50 is 45 µM.

Question: And the Activity (H9c2)?
Answer: Its Activity is 48%.

Question: And the Activity (RAW264.7)?
Answer: Its Activity is 24%.

Question: Which CC50 (A549) does the source give for `C[C@@H]1CC[C@H]2[C@H](C)[C@@H]3CC[C@@H]4[C@@H](C[C@H]5[C@H]4CC(=O)[C@H]4C[C@@H](O)CC[C@@]45C)[C@@H]3CN2C1` here?
Answer: Its CC50 is 31 µM.

Question: What about the CC50 (NCI-H460) of the same compound?
Answer: The CC50 was 37 µM.

Question: And the Activity (H9c2)?
Answer: Its Activity is 21%.

Question: What about the Activity (RAW264.7) of the same compound?
Answer: The Activity was 47%.

Question: `C[C@@H]1CC[C@H]2[C@H](C)[C@H]3CC[C@@H]4[C@@H](C[C@H]5[C@H]4C[C@H](O)[C@H]4C[C@@H](O)CC[C@@]45C)[C@@H]3CN2C1` was tested. Which CC50 (A549) did it give?
Answer: The CC50 was 23 µM.

Question: What about the CC50 (NCI-H460) of the same compound?
Answer: Its CC50 is 40 µM.

Question: And the Activity (H9c2)?
Answer: The Activity was 15%.

Question: And the Activity (RAW264.7)?
Answer: The Activity was 7.9%.

Question: Which results are given for `C[C@@H]1CC[C@H]2[C@H](C)[C@H]3CC[C@@H]4[C@@H](C[C@H]5[C@H]4CC(=O)[C@H]4C[C@@H](O)CC[C@@]45C)[C@@H]3C[N+]2([O-])C1` (stereo not given in full)?
Answer: CC50 (A549): 21 µM; CC50 (NCI-H460): 37 µM; Activity (H9c2): 29%; Activity (RAW264.7): 0.9%

Question: Which results are given for `C[C@@H]1CC[C@H]2[C@H](C)[C@H]3CC[C@@H]4[C@@H](C[C@H]5[C@H]4C[C@H](O)[C@H]4C[C@@H](O)CC[C@@]45C)[C@H]3C[N+]2([O-])C1` (stereo not given in full)?
Answer: CC50 (A549): 38 µM; CC50 (NCI-H460): 45 µM; Activity (H9c2): 15%; Activity (RAW264.7): 40%

From ChEMBL document CHEMBL5357052, “Diastereomers of Steroidal Alkaloids with Cytotoxic Activities against Non-Small-Cell Lung Cancer from the Bulbs of Fritillaria sinica” (2024)
